smiles,measurement,setting,value
Cl.N=C(N=C(N)N)N1CCOCC1,solubility (mole fraction),"in acetone, 283.15 K",1.9e-05
same,solubility (mole fraction),"in acetone, 293.15 K",3.3e-05
same,solubility (mole fraction),"in acetone, 303.15 K",6.2e-05
same,solubility (mole fraction),"in acetone, 313.15 K",0.000107
same,solubility (mole fraction),"in acetone, 323.15 K",0.000186
same,solubility (mole fraction),"in acetonitrile, 283.15 K",9.1e-05
same,solubility (mole fraction),"in acetonitrile, 293.15 K",0.000106
same,solubility (mole fraction),"in acetonitrile, 303.15 K",0.000117
same,solubility (mole fraction),"in acetonitrile, 313.15 K",0.000128
same,solubility (mole fraction),"in acetonitrile, 323.15 K",0.000149
same,solubility (mole fraction),"in ethanol, 283.15 K",0.0023
same,solubility (mole fraction),"in ethanol, 293.15 K",0.00283
same,solubility (mole fraction),"in ethanol, 303.15 K",0.00356
same,solubility (mole fraction),"in ethanol, 313.15 K",0.00461
same,solubility (mole fraction),"in ethanol, 323.15 K",0.00615
same,solubility (mole fraction),"in ethyl acetate, 283.15 K",7.7e-05
same,solubility (mole fraction),"in ethyl acetate, 293.15 K",9.7e-05
same,solubility (mole fraction),"in ethyl acetate, 303.15 K",0.000117
same,solubility (mole fraction),"in ethyl acetate, 313.15 K",0.000138
same,solubility (mole fraction),"in ethyl acetate, 323.15 K",0.000161
same,solubility (mole fraction),"in isobutanol, 283.15 K",0.000621
same,solubility (mole fraction),"in isobutanol, 293.15 K",0.000696
same,solubility (mole fraction),"in isobutanol, 303.15 K",0.000915
same,solubility (mole fraction),"in isobutanol, 313.15 K",0.00124
same,solubility (mole fraction),"in isobutanol, 323.15 K",0.00157
same,solubility (mole fraction),"in isopropanol, 283.15 K",0.000482
same,solubility (mole fraction),"in isopropanol, 293.15 K",0.00062
same,solubility (mole fraction),"in isopropanol, 303.15 K",0.00079
same,solubility (mole fraction),"in isopropanol, 313.15 K",0.001
same,solubility (mole fraction),"in isopropanol, 323.15 K",0.00124
same,solubility (mole fraction),"in methanol, 283.15 K",0.013
same,solubility (mole fraction),"in methanol, 293.15 K",0.0215
same,solubility (mole fraction),"in methanol, 303.15 K",0.0268
same,solubility (mole fraction),"in methanol, 313.15 K",0.0341
same,solubility (mole fraction),"in methanol, 323.15 K",0.0423
same,solubility (mole fraction),"in n-butanol, 283.15 K",0.000682
same,solubility (mole fraction),"in n-butanol, 293.15 K",0.000834
same,solubility (mole fraction),"in n-butanol, 303.15 K",0.00101
same,solubility (mole fraction),"in n-butanol, 313.15 K",0.00137
same,solubility (mole fraction),"in n-butanol, 323.15 K",0.00184
same,solubility (mole fraction),"in n-pentanol, 283.15 K",0.00045
same,solubility (mole fraction),"in n-pentanol, 293.15 K",0.000545
same,solubility (mole fraction),"in n-pentanol, 303.15 K",0.00061
same,solubility (mole fraction),"in n-pentanol, 313.15 K",0.000729
same,solubility (mole fraction),"in n-pentanol, 323.15 K",0.000967
same,solubility (mole fraction),"in n-propanol, 283.15 K",0.0011
same,solubility (mole fraction),"in n-propanol, 293.15 K",0.00136
same,solubility (mole fraction),"in n-propanol, 303.15 K",0.00161
same,solubility (mole fraction),"in n-propanol, 313.15 K",0.00206
same,solubility (mole fraction),"in n-propanol, 323.15 K",0.00279
same,solubility (mole fraction),"in sec-butanol, 283.15 K",0.000297
same,solubility (mole fraction),"in sec-butanol, 293.15 K",0.000358
same,solubility (mole fraction),"in sec-butanol, 303.15 K",0.000445
same,solubility (mole fraction),"in sec-butanol, 313.15 K",0.000534
same,solubility (mole fraction),"in sec-butanol, 323.15 K",0.000732
same,solubility (mole fraction),"in water, 283.15 K",0.0565
same,solubility (mole fraction),"in water, 293.15 K",0.0653
same,solubility (mole fraction),"in water, 303.15 K",0.0853
same,solubility (mole fraction),"in water, 313.15 K",0.105
same,solubility (mole fraction),"in water, 323.15 K",0.127
